Assay results published in PubChem BioAssay AID1919016 (Molecular Pharmacology Branch, DTP, NCI, 2023).

System: NCI-H196 complex spheroid growth, percent test/control
Assay: Anticancer human tumor NCI-H196 cell line growth inhibition [AhR];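 note: seven days of drug exposure starting three days after plating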;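 for viability, T/C: 100% = DMSO vehicle control wells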
Conditions: for IC50: curve of first compound; for viability, T/C: stronger effect = lower value
In short: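 Agents were dosed in half-log steps down from roughly clinical Cmax, or from 10 microM where Cmax was unknown, alone and with AhR antagonists. Read-out: percent test/control growth of tumor spheroids containing HUVEC and MSC stromal cells.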

[1] = second compound 0.1 µM, first compound 0.0316 µM
[2] = second compound 0.1 µM, first compound 0.1 µM
[3] = second compound 0.316 µM, first compound 0.0316 µM
[4] = second compound 0.316 µM, first compound 0.1 µM
[5] = second compound 1 µM, first compound 0.0316 µM
[6] = second compound 1 µM, first compound 0.1 µM
[7] = second compound 3.16 µM, first compound 0.0316 µM
[8] = second compound 3.16 µM, first compound 0.1 µM
[9] = second compound 10 µM, first compound 0.0316 µM
[10] = second compound 10 µM, first compound 0.1 µM

Q: Which results are given for `CC1(C)CCC(CN2CCN(c3ccc(C(=O)NS(=O)(=O)c4ccc(NCC5CCOCC5)c([N+](=O)[O-])c4)c(Oc4cnc5[nH]ccc5c4)c3)CC2)=C(c2ccc(Cl)cc2)C1` + Cc1cncc(-c2nc(NCCc3c[nH]c4ccccc34)c3ncn(C(C)C)c3n2)c1?
A: IC50 (second compound 0.1 µM): > 10 µM; IC50 (second compound 0.316 µM): > 10 µM; IC50 (second compound 1 µM): > 10 µM; IC50 (second compound 3.16 µM): > 10 µM; IC50 (second compound 10 µM): > 10 µM; viability, T/C [1]: 98.3%; viability, T/C [2]: 97.8%; viability, T/C (second compound 0.1 µM, first compound 0.316 µM): 89.4%; viability, T/C (second compound 0.1 µM, first compound 1 µM): 98.6%; viability, T/C (second compound 0.1 µM, first compound 3.16 µM): 96.5%; viability, T/C (second compound 0.1 µM, first compound 10 µM): 107%; viability, T/C [3]: 106%; viability, T/C [4]: 96%; viability, T/C (second compound 0.316 µM, first compound 0.316 µM): 95.7%; viability, T/C (second compound 0.316 µM, first compound 1 µM): 93.1%; viability, T/C (second compound 0.316 µM, first compound 3.16 µM): 105%; viability, T/C (second compound 0.316 µM, first compound 10 µM): 108%; viability, T/C [5]: 91.7%; viability, T/C [6]: 101%; viability, T/C (second compound 1 µM, first compound 0.316 µM): 108%; viability, T/C (second compound 1 µM, first compound 1 µM): 97.1%; viability, T/C (second compound 1 µM, first compound 3.16 µM): 103%; viability, T/C (second compound 1 µM, first compound 10 µM): 105%; viability, T/C [7]: 115%; viability, T/C [8]: 105%; viability, T/C (second compound 3.16 µM, first compound 0.316 µM): 105%; viability, T/C (second compound 3.16 µM, first compound 1 µM): 108%; viability, T/C (second compound 3.16 µM, first compound 3.16 µM): 95%; viability, T/C (second compound 3.16 µM, first compound 10 µM): 104%; viability, T/C [9]: 87.8%; viability, T/C [10]: 97.9%; viability, T/C (second compound 10 µM, first compound 0.316 µM): 107%; viability, T/C (second compound 10 µM, first compound 1 µM): 118%; viability, T/C (second compound 10 µM, first compound 3.16 µM): 105%; viability, T/C (second compound 10 µM, first compound 10 µM): 101%

Q: Which IC50 (second compound 0.1 µM) does the source give for `CCN(c1cc(-c2ccc(CN3CCOCC3)cc2)cc(C(=O)NCc2c(C)cc(C)[nH]c2=O)c1C)C1CCOCC1` + Cc1cncc(-c2nc(NCCc3c[nH]c4ccccc34)c3ncn(C(C)C)c3n2)c1 here?
A: > 3 µM

Q: And the IC50 (second compound 0.316 µM)?
A: > 3 µM

Q: What about the IC50 (second compound 1 µM) of the same compound?
A: > 3 µM

Q: What about the IC50 (second compound 3.16 µM) of the same compound?
A: > 3 µM

Q: What about the IC50 (second compound 10 µM) of the same compound?
A: > 3 µM

Q: And the viability, T/C (second compound 0.1 µM, first compound 0.00949 µM)?
A: 103%

Q: And the viability, T/C (second compound 0.1 µM, first compound 0.03 µM)?
A: 97.3%

Q: And the viability, T/C (second compound 0.1 µM, first compound 0.0949 µM)?
A: 97.7%

Q: What about the viability, T/C (second compound 0.1 µM, first compound 0.3 µM) of the same compound?
A: 96.9%

Q: What about the viability, T/C (second compound 0.1 µM, first compound 0.949 µM) of the same compound?
A: 99.3%

Q: What about the viability, T/C (second compound 0.1 µM, first compound 3 µM) of the same compound?
A: 97.3%

Q: What about the viability, T/C (second compound 0.316 µM, first compound 0.00949 µM) of the same compound?
A: 106%

Q: And the viability, T/C (second compound 0.316 µM, first compound 0.03 µM)?
A: 98.8%

Q: And the viability, T/C (second compound 0.316 µM, first compound 0.0949 µM)?
A: 102%

Q: What about the viability, T/C (second compound 0.316 µM, first compound 0.3 µM) of the same compound?
A: 92.4%

Q: And the viability, T/C (second compound 0.316 µM, first compound 0.949 µM)?
A: 99%

Q: And the viability, T/C (second compound 0.316 µM, first compound 3 µM)?
A: 98.8%

Q: And the viability, T/C (second compound 1 µM, first compound 0.00949 µM)?
A: 103%

Q: And the viability, T/C (second compound 1 µM, first compound 0.03 µM)?
A: 101%

Q: What about the viability, T/C (second compound 1 µM, first compound 0.0949 µM) of the same compound?
A: 111%

Q: What about the viability, T/C (second compound 1 µM, first compound 0.3 µM) of the same compound?
A: 97%

Q: What about the viability, T/C (second compound 1 µM, first compound 0.949 µM) of the same compound?
A: 92.2%

Q: And the viability, T/C (second compound 1 µM, first compound 3 µM)?
A: 93.3%

Q: What about the viability, T/C (second compound 3.16 µM, first compound 0.00949 µM) of the same compound?
A: 109%

Q: And the viability, T/C (second compound 3.16 µM, first compound 0.03 µM)?
A: 105%

Q: And the viability, T/C (second compound 3.16 µM, first compound 0.0949 µM)?
A: 114%

Q: What about the viability, T/C (second compound 3.16 µM, first compound 0.3 µM) of the same compound?
A: 106%

Q: And the viability, T/C (second compound 3.16 µM, first compound 0.949 µM)?
A: 104%

Q: What about the viability, T/C (second compound 3.16 µM, first compound 3 µM) of the same compound?
A: 121%

Q: What about the viability, T/C (second compound 10 µM, first compound 0.00949 µM) of the same compound?
A: 86.9%

Q: And the viability, T/C (second compound 10 µM, first compound 0.03 µM)?
A: 81.2%

Q: What about the viability, T/C (second compound 10 µM, first compound 0.0949 µM) of the same compound?
A: 86.5%

Q: What about the viability, T/C (second compound 10 µM, first compound 0.3 µM) of the same compound?
A: 81.1%

Q: And the viability, T/C (second compound 10 µM, first compound 0.949 µM)?
A: 87.2%

Q: And the viability, T/C (second compound 10 µM, first compound 3 µM)?
A: 90.1%

Q: For `Cn1ncnc1C1c2n[nH]c(=O)c3cc(F)cc(c23)NC1c1ccc(F)cc1` (stereo not given) + Cc1cncc(-c2nc(NCCc3c[nH]c4ccccc34)c3ncn(C(C)C)c3n2)c1, which IC50 (second compound 0.1 µM) is on record?
A: > 0.1 µM

Q: What about the IC50 (second compound 0.316 µM) of the same compound?
A: > 0.1 µM

Q: What about the IC50 (second compound 1 µM) of the same compound?
A: > 0.1 µM

Q: And the IC50 (second compound 3.16 µM)?
A: > 0.1 µM

Q: And the IC50 (second compound 10 µM)?
A: > 0.1 µM

Q: And the viability, T/C (second compound 0.1 µM, first compound 0.000316 µM)?
A: 110%

Q: And the viability, T/C (second compound 0.1 µM, first compound 0.001 µM)?
A: 101%

Q: And the viability, T/C (second compound 0.1 µM, first compound 0.00316 µM)?
A: 114%

Q: And the viability, T/C (second compound 0.1 µM, first compound 0.01 µM)?
A: 104%

Q: What about the viability, T/C [1] of the same compound?
A: 99.3%

Q: And the viability, T/C [2]?
A: 96%

Q: What about the viability, T/C (second compound 0.316 µM, first compound 0.000316 µM) of the same compound?
A: 112%

Q: And the viability, T/C (second compound 0.316 µM, first compound 0.001 µM)?
A: 98.6%

Q: And the viability, T/C (second compound 0.316 µM, first compound 0.00316 µM)?
A: 110%

Q: What about the viability, T/C (second compound 0.316 µM, first compound 0.01 µM) of the same compound?
A: 107%

Q: What about the viability, T/C [3] of the same compound?
A: 110%

Q: What about the viability, T/C [4] of the same compound?
A: 97.8%

Q: And the viability, T/C (second compound 1 µM, first compound 0.000316 µM)?
A: 103%

Q: What about the viability, T/C (second compound 1 µM, first compound 0.001 µM) of the same compound?
A: 102%

Q: And the viability, T/C (second compound 1 µM, first compound 0.00316 µM)?
A: 109%

Q: What about the viability, T/C (second compound 1 µM, first compound 0.01 µM) of the same compound?
A: 111%

Q: What about the viability, T/C [5] of the same compound?
A: 109%

Q: And the viability, T/C [6]?
A: 104%

Q: What about the viability, T/C (second compound 3.16 µM, first compound 0.000316 µM) of the same compound?
A: 111%

Q: What about the viability, T/C (second compound 3.16 µM, first compound 0.001 µM) of the same compound?
A: 113%

Q: And the viability, T/C (second compound 3.16 µM, first compound 0.00316 µM)?
A: 126%

Q: And the viability, T/C (second compound 3.16 µM, first compound 0.01 µM)?
A: 96.1%

Q: And the viability, T/C [7]?
A: 108%

Q: And the viability, T/C [8]?
A: 103%

Q: And the viability, T/C (second compound 10 µM, first compound 0.000316 µM)?
A: 94.5%

Q: And the viability, T/C (second compound 10 µM, first compound 0.001 µM)?
A: 97.8%

Q: What about the viability, T/C (second compound 10 µM, first compound 0.00316 µM) of the same compound?
A: 91.7%

Q: And the viability, T/C (second compound 10 µM, first compound 0.01 µM)?
A: 112%

Q: What about the viability, T/C [9] of the same compound?
A: 96.6%

Q: What about the viability, T/C [10] of the same compound?
A: 104%
